Test system: HMPV clinical isolate A2 strain TN 94-49
Experiment: HMPV antiviral assay, Method 2 (LLC-MK2 cells with CP-100-356, ATP-Lite)
Type: cell-based
Conditions: human metapneumovirus; hMPV A2 TN/94-49, LLC-MK2 cells with CP-100-356, Method 2
How it was run: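 LLC-MK2 rhesus kidney cells (5,000/well) infected in suspension with HMPV A2 TN 94-49 at MOI 0.16, in serum-free medium with final 2 μg/mL TPCK-trypsin and 2 μM CP-100-356. Compounds tested in duplicate from 200 nM, 2.5-fold, 10 points; 7 days at 37 °C. Cell health by ATP-Lite luminescence; EC50 by four-parameter fit.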

Structure (SMILES) | EC50 [µM]
COc1cc(C(=O)NC[C@](O)(c2cc3c(c(-c4ccnc(Cl)c4Cl)n2)OC[C@]3(C)C(N)=O)C2(F)CC2)cn2cc(C3(F)CC3)nc12 [Example 522] | < 0.2
C[C@]1(C(N)=O)COc2c1cc([C@@](O)(CNC(=O)c1cc(Cl)c3nn(C4CC4)cc3c1)C1(F)CC1)nc2-c1ccnc(Cl)c1Cl [Example 523] | < 0.2
COc1cc(C(=O)NC[C@](O)(c2cc3c(c(-c4ccnc(Cl)c4Cl)n2)OC[C@]3(C)C(N)=O)C2(F)CC2)cc2sc(C)nc12 [Example 524] | < 0.2
COc1cc(C(=O)NC[C@](O)(c2cc3c(c(-c4ccnc(C)c4Cl)n2)OC[C@]3(C)C(N)=O)C2(F)CC2)cc2cn(C3(F)CC3)nc12 [Example 525] | < 0.2
COc1cc(C(=O)NC[C@](O)(c2cc3c(c(-c4ccnc(C)c4Cl)n2)OC[C@]3(C)C(N)=O)C2(F)CC2)cn2cc(C3(F)CC3)nc12 [Example 528] | > 0.2
Cc1nccc(-c2nc([C@@](O)(CNC(=O)c3cc(Cl)c4nn(C5CC5)cc4c3)C3(F)CC3)cc3c2OC[C@]3(C)C(N)=O)c1Cl [Example 529] | > 0.2
COc1cc(C(=O)NC[C@](O)(c2cc3c(c(-c4ccnc(C)c4Cl)n2)OC[C@]3(C)C(N)=O)C2(F)CC2)cc2sc(C)nc12 [Example 530] | > 0.2
COc1cc(C(=O)NC[C@](O)(c2cc3c(c(-c4ccnc(C)c4Cl)n2)OC[C@]3(C)C(N)=O)C2(F)CC2)cc2oc(C3(F)CC3)nc12 [Example 532] | > 0.2
COc1cc(C(=O)NC[C@](O)(c2cc3c(c(-c4ccnc(C)c4Cl)n2)OC[C@]3(C)C(N)=O)C2(F)CC2)cc2oc(C(F)F)nc12 [Example 533] | > 0.2
C[C@]1(C(N)=O)COc2c1cc([C@@](O)(CNC(=O)c1cc(Cl)c3nn(C4CC4)cc3c1)C(F)(F)F)nc2-c1ccnc(C(F)(F)F)c1Cl [Example 535] | < 0.2
COc1cc(C(=O)NC[C@](O)(c2cc3c(c(-c4ccnc(C(F)(F)F)c4Cl)n2)OC[C@]3(C)C(N)=O)C(F)(F)F)cc2sc(C)nc12 [Example 537] | < 0.2
COc1cc(C(=O)NC[C@@](O)(c2cccc(F)c2)c2cc3c(c(-c4ccnc(C)c4Cl)n2)OC[C@]3(C)C(N)=O)cc2cn(C(F)F)nc12 [Example 538] | < 0.2
COc1cc(C(=O)NC[C@@](O)(c2cccc(F)c2)c2cc3c(c(-c4ccnc(C)c4Cl)n2)OC[C@]3(C)C(N)=O)cc2cn(C3(F)CC3)nc12 [Example 539] | < 0.2
COc1cc(C(=O)NC[C@@](O)(c2cccc(F)c2)c2cc3c(c(-c4ccnc(C)c4Cl)n2)OC[C@]3(C)C(N)=O)cc2oc(C3CC3)nc12 [Example 540] | < 0.2
COc1cc(C(=O)NC[C@@](O)(c2ccc(F)cc2)c2cc3c(c(-c4ccnc(C(F)(F)F)c4F)n2)OC[C@]3(C)C(N)=O)cc2oc(C(F)F)nc12 [Example 541] | < 0.2
COc1nccc(-c2nc([C@@](O)(CNC(=O)c3cc(Cl)c4nn(C5CC5)cc4c3)C(F)(F)F)cc3c2OC[C@]3(C)C(N)=O)c1Cl [Example 544] | < 0.2
COc1nccc(-c2nc([C@@](O)(CNC(=O)c3cc(OC)c4nc(C5CC5)oc4c3)C(F)(F)F)cc3c2OC[C@]3(C)C(N)=O)c1Cl [Example 545] | < 0.2
COc1nccc(-c2nc([C@@](O)(CNC(=O)c3cc(OC)c4nc(C)sc4c3)C(F)(F)F)cc3c2OC[C@]3(C)C(N)=O)c1Cl [Example 546] | < 0.2
COc1nccc(-c2nc([C@@](O)(CNC(=O)c3cc(OC)c4nc(C(F)F)oc4c3)C(F)(F)F)cc3c2OC[C@]3(C)C(N)=O)c1Cl [Example 547] | > 0.2
C[C@]1(C(N)=O)COc2c1cc([C@@](O)(CNC(=O)c1cc(Cl)c3nn(C4CC4)cc3c1)C(F)(F)F)nc2-c1ccnc(C(F)F)c1Cl [Example 549] | < 0.2
COc1cc(C(=O)NC[C@](O)(c2cc3c(c(-c4ccnc(C(F)F)c4Cl)n2)OC[C@]3(C)C(N)=O)C(F)(F)F)cc2sc(C)nc12 [Example 551] | < 0.2
COc1cc(C(=O)NC[C@](O)(c2cc3c(c(-c4ccnc(C(F)F)c4Cl)n2)OC[C@]3(C)C(N)=O)C(F)(F)F)cc2oc(C(F)F)nc12 [Example 552] | < 0.2
COc1nccc(-c2nc([C@@](O)(CNC(=O)c3cc(OC)c4nn(C5CC5)cc4c3)c3ccccc3)cc3c2OC[C@]3(C)C(N)=O)c1Cl [Example 553] | < 0.2
COc1nccc(-c2nc([C@@](O)(CNC(=O)c3cc(OC)c4nn(C(F)F)cc4c3)c3ccccc3)cc3c2OC[C@]3(C)C(N)=O)c1Cl [Example 554] | < 0.2
COc1nccc(-c2nc([C@@](O)(CNC(=O)c3cc(OC)c4nn(C5(F)CC5)cc4c3)c3ccccc3)cc3c2OC[C@]3(C)C(N)=O)c1Cl [Example 555] | < 0.2
COc1nccc(-c2nc([C@@](O)(CNC(=O)c3cc(OC)c4nc(C5CC5)oc4c3)c3ccccc3)cc3c2OC[C@]3(C)C(N)=O)c1Cl [Example 556] | < 0.2
COc1nccc(-c2nc([C@@](O)(CNC(=O)c3cc(OC)c4nc(C(F)F)oc4c3)c3ccccc3)cc3c2OC[C@]3(C)C(N)=O)c1Cl [Example 557] | < 0.2

Structure (SMILES) | EC50 [µM]
COc1nccc(-c2nc([C@@](O)(CNC(=O)c3cc(OC)c4nn(C(F)F)cc4c3)c3cccc(F)c3)cc3c2OC[C@]3(C)C(N)=O)c1Cl [Example 558] | < 0.2
COc1nccc(-c2nc([C@@](O)(CNC(=O)c3cc(OC)c4nn(C5(F)CC5)cc4c3)c3cccc(F)c3)cc3c2OC[C@]3(C)C(N)=O)c1Cl [Example 559] | < 0.2
COc1nccc(-c2nc([C@@](O)(CNC(=O)c3cc(OC)c4nc(C5CC5)oc4c3)c3cccc(F)c3)cc3c2OC[C@]3(C)C(N)=O)c1Cl [Example 560] | < 0.2
COc1nccc(-c2nc([C@@](O)(CNC(=O)c3cc(OC)c4nc(C(F)F)oc4c3)c3cccc(F)c3)cc3c2OC[C@]3(C)C(N)=O)c1Cl [Example 561] | < 0.2
COc1cc(C(=O)NC[C@@](O)(c2ccccc2)c2cc3c(c(-c4ccnc(C(F)F)c4Cl)n2)OC[C@]3(C)C(N)=O)cc2cn(C3CC3)nc12 [Example 562] | < 0.2
COc1cc(C(=O)NC[C@@](O)(c2ccccc2)c2cc3c(c(-c4ccnc(C(F)F)c4Cl)n2)OC[C@]3(C)C(N)=O)cc2cn(C3(F)CC3)nc12 [Example 563] | < 0.2
COc1cc(C(=O)NC[C@@](O)(c2ccccc2)c2cc3c(c(-c4ccnc(C(F)F)c4Cl)n2)OC[C@]3(C)C(N)=O)cc2oc(C3CC3)nc12 [Example 564] | < 0.2
COc1cc(C(=O)NC[C@@](O)(c2cccc(F)c2)c2cc3c(c(-c4ccnc(C(F)F)c4Cl)n2)OC[C@]3(C)C(N)=O)cc2cn(C3CC3)nc12 [Example 565] | < 0.2
COc1cc(C(=O)NC[C@@](O)(c2cccc(F)c2)c2cc3c(c(-c4ccnc(C(F)F)c4Cl)n2)OC[C@]3(C)C(N)=O)cc2cn(C3(F)CC3)nc12 [Example 566] | < 0.2
COc1cc(C(=O)NC[C@@](O)(c2cccc(F)c2)c2cc3c(c(-c4ccnc(C(F)F)c4Cl)n2)OC[C@]3(C)C(N)=O)cc2oc(C3CC3)nc12 [Example 567] | < 0.2
COc1cc(C(=O)NC[C@@](O)(c2cccc(F)c2)c2cc3c(c(-c4ccnc(C(F)F)c4Cl)n2)OC[C@]3(C)C(N)=O)cc2oc(C(F)F)nc12 [Example 568] | < 0.2
COc1cc(C(=O)NC[C@@](O)(c2ccc(F)cc2)c2cc3c(c(-c4ccnc(C(F)F)c4Cl)n2)OC[C@]3(C)C(N)=O)cc2cn(C3CC3)nc12 [Example 569] | < 0.2
COc1cc(C(=O)NC[C@@](O)(c2ccc(F)cc2)c2cc3c(c(-c4ccnc(C(F)F)c4Cl)n2)OC[C@]3(C)C(N)=O)cc2cn(C3(F)CC3)nc12 [Example 570] | < 0.2
COc1cc(C(=O)NC[C@@](O)(c2ccc(F)cc2)c2cc3c(c(-c4ccnc(C(F)(F)F)c4F)n2)OC[C@]3(C)C(N)=O)cc2cn(C3CC3)nc12 [Example 571] | < 0.2
COc1cc(C(=O)NC[C@@](O)(c2ccc(F)cc2)c2cc3c(c(-c4ccnc(C(F)(F)F)c4F)n2)OC[C@]3(C)C(N)=O)cc2cn(C(F)F)nc12 [Example 572] | < 0.2
COc1cc(C(=O)NC[C@@](O)(c2ccc(F)cc2)c2cc3c(c(-c4ccnc(C(F)(F)F)c4F)n2)OC[C@]3(C)C(N)=O)cc2cn(C3(F)CC3)nc12 [Example 573] | < 0.2
COc1cc(C(=O)NC[C@@](O)(c2ccc(F)cc2)c2cc3c(c(-c4ccnc(C(F)(F)F)c4F)n2)OC[C@]3(C)C(N)=O)cc2oc(C3CC3)nc12 [Example 574] | < 0.2
COc1cc(C(=O)NC[C@](O)(c2cc3c(c(-c4ccnc(Cl)c4Cl)n2)OC[C@]3(C)C(N)=O)C2CC2)cn2cc(C3CC3)nc12 [Example 578] | < 0.2
COc1cc(C(=O)NC[C@](O)(c2cc3c(c(-c4ccnc(C(F)(F)F)c4Cl)n2)OC[C@]3(C)C(N)=O)C2CC2)cn2cc(C3CC3)nc12 [Example 580] | < 0.2
COc1nccc(-c2nc([C@@](O)(CNC(=O)c3cc(OC)c4nc(C5CC5)cn4c3)C3CC3)cc3c2OC[C@]3(C)C(N)=O)c1Cl [Example 583] | < 0.2
COc1nccc(-c2nc([C@@](O)(CNC(=O)c3cc(OC4CC4)c4nn(C5CC5)cc4c3)C(F)(F)F)cc3c2OC[C@]3(C)C(N)=O)c1Cl [Example 586] | < 0.2
COc1nccc(-c2nc([C@@](O)(CNC(=O)c3cc(OC4CC4)c4nn(C(F)F)cc4c3)C(F)(F)F)cc3c2OC[C@]3(C)C(N)=O)c1Cl [Example 587] | < 0.2
COc1nccc(-c2nc([C@@](O)(CNC(=O)c3cc(OC4CC4)c4nn(C5(F)CC5)cc4c3)C(F)(F)F)cc3c2OC[C@]3(C)C(N)=O)c1Cl [Example 588] | < 0.2
COc1nccc(-c2nc([C@@](O)(CNC(=O)c3cc(OC)c4nc(C5CC5)cn4c3)C(F)(F)F)cc3c2OC[C@]3(C)C(N)=O)c1Cl [Example 589] | < 0.2
COc1nccc(-c2nc([C@@](O)(CNC(=O)c3cc(OC)n4nc(C5CC5)cc4c3)C(F)(F)F)cc3c2OC[C@]3(C)C(N)=O)c1Cl [Example 590] | < 0.2
COc1nccc(-c2nc([C@@](O)(CNC(=O)c3cc(OC4CC4)c4nn(C(F)F)cc4c3)C3CC3)cc3c2OC[C@]3(C)C(N)=O)c1Cl [Example 591] | < 0.2

Reference: patent US20240368174A1, “Antiviral Heterocyclic Compounds” (Enanta Pharmaceuticals, Inc., priority 2023, published 2024)
